One data set concerns the target T1, hKv4.3 (Homo sapiens, UniProt Q9UK17).
T1 construct: expressed in transfected cells; host or cells: HEK-293
T1 sequence (Q9UK17 1-655): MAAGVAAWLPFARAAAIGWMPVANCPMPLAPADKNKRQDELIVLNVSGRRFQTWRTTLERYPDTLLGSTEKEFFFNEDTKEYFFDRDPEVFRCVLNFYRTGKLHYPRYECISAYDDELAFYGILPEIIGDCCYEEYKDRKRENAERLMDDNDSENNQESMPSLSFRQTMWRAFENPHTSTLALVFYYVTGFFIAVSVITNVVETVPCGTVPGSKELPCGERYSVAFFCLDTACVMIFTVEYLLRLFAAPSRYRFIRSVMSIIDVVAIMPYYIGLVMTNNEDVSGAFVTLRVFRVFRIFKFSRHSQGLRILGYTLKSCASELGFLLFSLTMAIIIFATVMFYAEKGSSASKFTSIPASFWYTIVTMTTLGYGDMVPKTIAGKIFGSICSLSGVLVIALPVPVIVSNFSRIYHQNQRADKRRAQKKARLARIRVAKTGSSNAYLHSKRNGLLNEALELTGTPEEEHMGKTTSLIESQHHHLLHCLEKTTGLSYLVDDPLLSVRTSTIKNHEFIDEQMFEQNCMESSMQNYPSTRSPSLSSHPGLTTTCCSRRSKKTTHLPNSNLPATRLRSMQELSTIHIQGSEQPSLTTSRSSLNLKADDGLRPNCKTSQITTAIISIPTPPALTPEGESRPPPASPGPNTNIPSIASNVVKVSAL
Briefly: Automated patch clamp (QPatch), transient outward K+ current Ito. Type of data set: cell-based. The settings on record: room temperature; dash = no effect or IC50 much higher than tested concentrations. On the technique in general: In patch-clamp work, channel activity is measured electrically.

The subject of the next data set is rabbit Purkinje fibers. Briefly: In vitro drug assay on rabbit Purkinje fibers (microelectrode AP recordings). The settings on record: for EADs occurrence in rabbit experiments / Risk classification based on EADs occurrence, in vitro rabbit: slow pacing; for EADs occurrence in rabbit experiments: across tested concentrations; for Risk classification based on EADs occurrence, in vitro rabbit: compared with clinical risk; for ΔAPD90 Exp: Normal pacing (1 Hz).

On the set-up of data set [1]: method as in Woosley and Romer, 1999; key: 1: Known risk; 2: Conditional risk; NC: Not classified, i.e., evidence was not enough to add it to any risk category. Particulars: CredibleMeds category; ref Woosley and Romer, 1999; cited from earlier work.
Data set [2] concerns the target T2, hNav1.5 (Homo sapiens, UniProt Q14524).
T2 construct: expressed in transfected cells; host or cells: HEK-293
Briefly: Automated patch clamp (QPatch), fast Na+ current INa. The settings on record: room temperature; dash = no effect or IC50 much higher than tested concentrations. Type of data set: cell-based.

Another data set has as its system rabbit hearts. The settings on record: cited from earlier work.
In data set [3] the target is T3, hCav1.2 (Homo sapiens, UniProt Q13936).
T3 construct: expressed in transfected cells; host or cells: CHO
T3 sequence (Q13936 whole entry): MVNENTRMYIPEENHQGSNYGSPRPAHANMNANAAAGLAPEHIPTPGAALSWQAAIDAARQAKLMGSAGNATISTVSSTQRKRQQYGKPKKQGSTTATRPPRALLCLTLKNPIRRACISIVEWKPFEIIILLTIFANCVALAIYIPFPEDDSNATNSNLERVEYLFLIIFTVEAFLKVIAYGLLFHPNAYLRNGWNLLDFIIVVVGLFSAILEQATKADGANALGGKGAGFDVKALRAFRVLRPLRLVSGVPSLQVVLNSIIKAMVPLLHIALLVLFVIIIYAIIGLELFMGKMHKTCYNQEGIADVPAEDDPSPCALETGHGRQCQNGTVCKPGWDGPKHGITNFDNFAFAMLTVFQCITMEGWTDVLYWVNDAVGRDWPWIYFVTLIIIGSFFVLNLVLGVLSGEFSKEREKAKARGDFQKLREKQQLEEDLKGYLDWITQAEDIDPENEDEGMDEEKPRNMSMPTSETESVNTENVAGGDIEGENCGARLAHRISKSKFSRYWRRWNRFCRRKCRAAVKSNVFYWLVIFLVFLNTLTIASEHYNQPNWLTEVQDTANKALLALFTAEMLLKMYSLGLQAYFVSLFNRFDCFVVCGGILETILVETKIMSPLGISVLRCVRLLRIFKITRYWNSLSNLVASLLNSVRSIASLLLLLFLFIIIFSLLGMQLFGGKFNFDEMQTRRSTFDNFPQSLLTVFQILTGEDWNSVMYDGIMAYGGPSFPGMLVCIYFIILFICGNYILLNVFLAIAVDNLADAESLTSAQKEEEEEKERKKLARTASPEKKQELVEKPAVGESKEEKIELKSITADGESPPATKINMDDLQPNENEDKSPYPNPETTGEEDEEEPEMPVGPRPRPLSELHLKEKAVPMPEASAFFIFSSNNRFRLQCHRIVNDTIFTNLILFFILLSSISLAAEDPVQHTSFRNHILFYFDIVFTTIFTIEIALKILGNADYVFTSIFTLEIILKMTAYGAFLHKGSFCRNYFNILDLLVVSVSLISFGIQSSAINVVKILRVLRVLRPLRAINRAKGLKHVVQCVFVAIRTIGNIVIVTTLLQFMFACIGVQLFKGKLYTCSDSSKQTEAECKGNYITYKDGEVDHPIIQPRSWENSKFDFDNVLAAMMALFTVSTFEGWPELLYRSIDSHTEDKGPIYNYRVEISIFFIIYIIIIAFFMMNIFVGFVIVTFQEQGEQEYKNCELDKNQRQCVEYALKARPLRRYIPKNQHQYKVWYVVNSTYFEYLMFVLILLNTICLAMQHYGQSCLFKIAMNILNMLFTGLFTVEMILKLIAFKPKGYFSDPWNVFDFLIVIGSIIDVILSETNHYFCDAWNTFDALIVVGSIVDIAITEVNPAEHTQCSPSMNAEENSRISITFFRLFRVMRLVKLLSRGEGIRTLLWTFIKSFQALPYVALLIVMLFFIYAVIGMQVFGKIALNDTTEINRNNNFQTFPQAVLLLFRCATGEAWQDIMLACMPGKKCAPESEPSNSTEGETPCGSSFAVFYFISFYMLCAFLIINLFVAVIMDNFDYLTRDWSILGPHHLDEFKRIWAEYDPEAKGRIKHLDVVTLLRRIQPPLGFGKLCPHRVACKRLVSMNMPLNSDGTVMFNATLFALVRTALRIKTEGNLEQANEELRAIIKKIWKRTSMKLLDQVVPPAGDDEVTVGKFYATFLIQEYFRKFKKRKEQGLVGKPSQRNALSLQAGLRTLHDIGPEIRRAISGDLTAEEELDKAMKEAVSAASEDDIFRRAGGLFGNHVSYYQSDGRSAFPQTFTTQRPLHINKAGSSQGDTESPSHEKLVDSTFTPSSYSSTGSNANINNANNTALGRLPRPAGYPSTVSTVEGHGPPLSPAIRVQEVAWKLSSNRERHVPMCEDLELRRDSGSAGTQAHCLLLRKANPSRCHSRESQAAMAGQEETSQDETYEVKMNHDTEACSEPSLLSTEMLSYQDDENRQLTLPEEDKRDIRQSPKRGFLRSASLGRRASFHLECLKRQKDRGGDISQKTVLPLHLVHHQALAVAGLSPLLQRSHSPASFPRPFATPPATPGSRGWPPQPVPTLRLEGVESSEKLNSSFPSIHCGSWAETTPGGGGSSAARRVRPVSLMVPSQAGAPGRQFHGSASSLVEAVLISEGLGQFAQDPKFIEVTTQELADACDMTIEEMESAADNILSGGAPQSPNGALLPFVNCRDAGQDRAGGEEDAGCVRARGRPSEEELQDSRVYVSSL
Put plainly: Automated patch clamp (QPatch), L-type Ca2+ current ICaL. The settings on record: room temperature; dash = no effect or IC50 much higher than tested concentrations. Type of data set: cell-based.

Details of data set [4]: method as in Démolis et al., 2003. Particulars: therapeutic doses; ref Démolis et al., 2003; cited from earlier work.
The next data set concerns the target T4, hERG (Homo sapiens, UniProt Q12809).
T4 construct: host or cells: CHO (hERG-CHO) and HEK-293 stably transfected with hERG cDNA
The settings on record: ref Crumb et al., 2016; cited from earlier work.

For data set [5], the target named is T2, hNav1.5. Also noted: method as in Crumb et al., 2016. Particulars: ref Crumb et al., 2016; cited from earlier work.
In data set [6] the target is T3, hCav1.2. Particulars: ref Crumb et al., 2016; cited from earlier work.
The subject of the next data set is hiPSC-CMs. The settings on record: 100 µM; ref Blinova et al., 2018; Yu et al., 2019; cited from earlier work.

Data on 13 compounds can be found in paper PMC9581132, “Cross clinical-experimental-computational qualification of in silico drug trials on human cardiac purkinje cells for proarrhythmia risk prediction” (Frontiers in Toxicology, 2022).

Each structure is given as a SMILES string. “Also recorded” adds a separate entry of the source. Like-named read-outs stand apart in the source and are kept apart here.

As usually defined, the IC50 is the point on the concentration scale where inhibition reaches its midpoint.

T2 sequence (Q14524 whole entry): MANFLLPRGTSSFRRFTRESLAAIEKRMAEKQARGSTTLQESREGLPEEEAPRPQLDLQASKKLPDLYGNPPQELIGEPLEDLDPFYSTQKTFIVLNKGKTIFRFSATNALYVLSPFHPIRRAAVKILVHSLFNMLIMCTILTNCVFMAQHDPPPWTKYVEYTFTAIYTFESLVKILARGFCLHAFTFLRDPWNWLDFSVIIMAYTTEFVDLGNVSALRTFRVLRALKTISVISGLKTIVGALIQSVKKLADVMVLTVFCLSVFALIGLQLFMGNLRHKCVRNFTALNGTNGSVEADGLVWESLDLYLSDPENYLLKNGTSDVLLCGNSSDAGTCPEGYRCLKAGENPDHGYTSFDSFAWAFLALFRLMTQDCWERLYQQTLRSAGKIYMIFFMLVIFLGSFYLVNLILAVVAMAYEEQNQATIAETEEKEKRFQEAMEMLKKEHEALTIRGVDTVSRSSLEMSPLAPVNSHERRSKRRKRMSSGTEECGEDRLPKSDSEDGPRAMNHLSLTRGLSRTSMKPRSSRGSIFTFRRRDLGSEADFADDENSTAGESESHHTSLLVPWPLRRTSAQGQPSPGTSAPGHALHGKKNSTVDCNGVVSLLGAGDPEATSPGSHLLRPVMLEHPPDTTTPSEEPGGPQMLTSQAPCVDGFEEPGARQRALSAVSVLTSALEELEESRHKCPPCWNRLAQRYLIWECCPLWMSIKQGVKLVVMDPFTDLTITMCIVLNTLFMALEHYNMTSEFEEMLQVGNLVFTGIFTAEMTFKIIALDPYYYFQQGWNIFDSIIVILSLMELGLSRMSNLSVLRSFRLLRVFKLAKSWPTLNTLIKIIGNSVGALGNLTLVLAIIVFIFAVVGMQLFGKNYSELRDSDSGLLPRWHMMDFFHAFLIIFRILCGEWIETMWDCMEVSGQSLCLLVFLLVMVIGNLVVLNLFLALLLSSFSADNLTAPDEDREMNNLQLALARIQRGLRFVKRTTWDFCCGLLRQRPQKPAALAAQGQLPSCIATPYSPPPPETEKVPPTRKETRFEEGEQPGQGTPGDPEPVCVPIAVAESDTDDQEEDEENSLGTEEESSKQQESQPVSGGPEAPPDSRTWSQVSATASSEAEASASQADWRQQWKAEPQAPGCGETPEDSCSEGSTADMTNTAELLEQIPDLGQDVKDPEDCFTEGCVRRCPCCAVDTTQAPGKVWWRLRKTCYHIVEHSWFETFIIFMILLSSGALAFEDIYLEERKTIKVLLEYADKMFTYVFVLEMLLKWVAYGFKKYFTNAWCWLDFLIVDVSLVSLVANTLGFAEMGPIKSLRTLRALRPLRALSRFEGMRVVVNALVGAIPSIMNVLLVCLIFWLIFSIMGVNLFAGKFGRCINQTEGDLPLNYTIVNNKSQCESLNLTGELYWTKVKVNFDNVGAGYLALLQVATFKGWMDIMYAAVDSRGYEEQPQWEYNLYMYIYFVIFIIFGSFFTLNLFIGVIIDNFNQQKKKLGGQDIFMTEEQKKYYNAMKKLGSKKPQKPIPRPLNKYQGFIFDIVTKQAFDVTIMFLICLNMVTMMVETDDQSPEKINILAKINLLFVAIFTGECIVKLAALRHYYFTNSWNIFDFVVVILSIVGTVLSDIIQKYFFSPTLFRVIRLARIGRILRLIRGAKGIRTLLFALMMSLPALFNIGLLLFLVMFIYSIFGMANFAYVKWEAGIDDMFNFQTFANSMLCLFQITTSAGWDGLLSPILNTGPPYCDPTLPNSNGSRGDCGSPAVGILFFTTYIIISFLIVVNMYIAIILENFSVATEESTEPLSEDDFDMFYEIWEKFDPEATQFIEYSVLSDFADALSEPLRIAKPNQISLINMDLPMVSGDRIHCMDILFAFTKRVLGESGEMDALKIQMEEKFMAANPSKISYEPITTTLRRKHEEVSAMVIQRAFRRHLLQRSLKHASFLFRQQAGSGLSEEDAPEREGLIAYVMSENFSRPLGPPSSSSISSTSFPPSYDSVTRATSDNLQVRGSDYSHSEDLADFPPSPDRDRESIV

Compound `COc1ccc(CCN2CCC(Nc3nc4ccccc4n3Cc3ccc(F)cc3)CC2)cc1` [Astemizole] yielded an IC50 against hKv4.3 of 22 µM. Further, the “EADs occurrence in rabbit experiments” value in the data set on rabbit Purkinje fibers is given as “induced EADs”. In addition, the TdP risk in data set [1] is 1.

`CC(C)COCC(CN(Cc1ccccc1)c1ccccc1)N1CCCC1` (stereo not drawn) [Bepridil] registered an IC50 against hKv4.3 of 13 µM. Moreover, in the data set with rabbit Purkinje fibers, the “EADs occurrence in rabbit experiments” value is recorded as “no EADs were observed” and the “Risk classification based on EADs occurrence, in vitro rabbit” value is reported as “misclassified”. Moreover, the TdP risk in [1] was 1. This compound also registered a 50% inhibitory concentration (IC50) against hNav1.5 [2] of 3.1 µM. In the data set on rabbit hearts (up to 10 µM, ref Anno et al., 1984, Hondeghem et al., 2003), the “EADs in rabbit hearts” value is reported as “did not induce EADs”.

Take `COc1cc(N)c(Cl)cc1C(=O)NC1CCN(CCCOc2ccc(F)cc2)CC1OC` (stereo not drawn) [Cisapride]: in the data set on rabbit Purkinje fibers, the “EADs occurrence in rabbit experiments” value is listed as “induced EADs”. Besides, in data set [1], the TdP risk is recorded as 1. This compound also had a half-inhibitory concentration (IC50) at hCav1.2 [3] of 33 µM.

Turning to `CC[C@H]1OC(=O)[C@H](C)[C@@H](O[C@H]2C[C@@](C)(OC)[C@@H](O)[C@H](C)O2)[C@H](C)[C@@H](O[C@@H]2O[C@H](C)C[C@H](N(C)C)[C@H]2O)[C@](C)(OC)C[C@@H](C)C(=O)[C@H](C)[C@@H](O)[C@]1(C)O` [Clarithromycin], the “ΔAPD90 Exp” value with rabbit Purkinje fibers (30 μM) amounted to 51%. In data set [1], the TdP risk is 1. In [4], the QT prolongation entry is on record as “no QT prolongation at therapeutic doses”. Moreover, the figures for the IC50 at hERG, at hNav1.5 [5] and at hCav1.2 [6] were 62.5 µM, 163 µM and 103 µM, respectively.

With `COc1ccc([C@@H]2Sc3ccccc3N(CCN(C)C)C(=O)[C@@H]2OC(C)=O)cc1` [Diltiazem], at hKv4.3, the IC50 was found to be 84 µM. Also, in the data set with rabbit Purkinje fibers, the “EADs occurrence in rabbit experiments” value is “did not induce any EADs; also recorded: did not induce any repolarization abnormalities” and the “Risk classification based on EADs occurrence, in vitro rabbit” value is given as “correctly classified as safe”.

As for `CC(C)N(CCC(C(N)=O)(c1ccccc1)c1ccccn1)C(C)C` (stereo not drawn) [Disopyramide], the TdP risk in data set [1] is recorded as 1. Moreover, the IC50 against hCav1.2 [3] is 114 µM.

As for `CN(CCOc1ccc(NS(C)(=O)=O)cc1)CCc1ccc(NS(C)(=O)=O)cc1` [Dofetilide], the “ΔAPD90 Exp” value in the data set on rabbit Purkinje fibers (0.01 μM) came to 113%. Besides, the TdP risk in [1] is 1.

For `COC(=O)C1=C(C)NC(C)=C(C(=O)OC)C1c1ccccc1[N+](=O)[O-]` [Nifedipine], on hKv4.3, inhibition was half-maximal at 31 µM (IC50). In the data set with rabbit Purkinje fibers, the “EADs occurrence in rabbit experiments” value is reported as “did not induce any EADs” and the “Risk classification based on EADs occurrence, in vitro rabbit” value is “correctly classified as safe”.

As to `C=C[C@H]1C[N@@]2CC[C@H]1C[C@@H]2[C@@H](O)c1ccnc2ccc(OC)cc12` [Quinidine], the TdP risk in data set [1] is given as 1.

For the compound `COc1ccccc1OCC(O)CN1CCN(CC(=O)Nc2c(C)cccc2C)CC1` (stereo not drawn) [Ranolazine], in the data set on rabbit Purkinje fibers, the “EADs occurrence in rabbit experiments” value is “no EADs were observed” and the “Risk classification based on EADs occurrence, in vitro rabbit” value is “misclassified”. The TdP risk in data set [1] is 2. The “EADs in hiPSC-CMs” value with hiPSC-CMs is recorded as “induced EADs”. This compound showed an IC50 on hCav1.2 [3] of 156 µM. Also, the “Effect in rabbit hearts” value with rabbit hearts (10 µM, ref Frommeyer et al., 2012, Sossalla et al., 2014) was “anti-torsadogenic effects”.

In the case of `Cc1nc2n(c(=O)c1CCN1CCC(c3noc4cc(F)ccc34)CC1)CCCC2` [Risperidone], the TdP risk in [1] is reported as 2.

Turning to `CC(C)NCC(O)c1ccc(NS(C)(=O)=O)cc1` (stereo not drawn) [Sotalol], in the data set with rabbit Purkinje fibers (30 μM), the “ΔAPD90 Exp” value is given as 96%.

`CC(C)(C)c1ccc(C(O)CCCN2CCC(C(O)(c3ccccc3)c3ccccc3)CC2)cc1` (stereo not drawn) [Terfenadine]: half-maximal inhibition on hKv4.3 (IC50) was put at 68 µM. The “Risk classification based on mean APD90 prolongation >10%, in vitro rabbit” value in the data set with rabbit Purkinje fibers (1 Hz) is “false negative”. Moreover, in the data set on rabbit Purkinje fibers (APD90 at 1 Hz, maximum over tested concentrations), the “AP prolongation in vitro rabbit experiments” value was “up to 7%”. In addition, in the data set on rabbit Purkinje fibers, the “EADs occurrence in rabbit experiments” value is given as “no EADs were observed” and the “Risk classification based on EADs occurrence, in vitro rabbit” value is listed as “misclassified”.
